Measured values: patent publication US7695930B2, “Method for the detection, identification and/or quantification of microoganisms with peptidase activity using phenoxazinone derivatives as enzyme substrates” (Biomerieux, priority 2003, dated 2010)

Test system: Acinetobacter baumannii (ATCC 19606)
Test: Alanine peptidase detection, substrates with one to three amino acids (Example 15)
Assay type: cell-based
Design: key to color of the colony: R=pink; RP=pale pink; I=colorless
Settings: 50 mg/l
Method: 1000 ml of Columbia medium was melted in a waterbath at 100° C. and autoclaved at 121° C. for 15 min. It was then cooled to 50° C. in a waterbath.
This medium was separated into 5 flasks of 200 ml, and then, added at 50° C., as substrates, was that of Example 2 for which A is: • medium 1: L-alanine (L-alanine-9-aminobenzo[a]phenoxazin-5-one or A-ABP), • medium 2: L-alanine-L-alanine (L-alanine-L-alanine-9-aminobenzo-[a]phenoxazin-5-one or AA-ABP), • medium 3: L-alanine-L-alanine-L-alanine (L-alanine-L-alanine-L-alanine-9-aminobenzo[a]phenoxazin-5-one or AAA-ABP), • medium 4: L-alanine-glycine (L-alanine-glycine-9-aminobenzo[a]phenoxazin-5-one or AG-ABP), and • medium 5: glycine-L-alanine (glycine-L-alanine-9-aminobenzo[a]phenoxazin-5-one or GA-ABP), each substrate being solubilized in DMSO and used at a final concentration of 50 mg/l.
The medium was then poured into Petri dishes.
Nine microorganism strains derived from the Applicant's collection, suspended in physiological saline, were seeded in colonies on the media prepared in point 15.1 above according to a multipoint inoculation in a proportion of 15 000 cfu/spot. The dishes were incubated at 37° C. for 48 hours. The colonies formed were examined visually after incubation for 24 and 48 hours.
The results are expressed in Tables 7 and 8 hereinafter according to the rules and the nomenclature stated in paragraph 11.3 and where R=pink, RP=pale pink and I=colorless.

L-alanyl-9-aminobenzo[a]phenoxazin-5-one [Ala-ABP]
color of the colony (24 h): R
growth diameter (24 h): 3 mm
color of the colony (48 h): R
growth diameter (48 h): 3 mm
